Measurements reported in publication PMC9262797, “Spectrum and characterization of bi-allelic variants in MMAB causing cblB-type methylmalonic aciduria” (Human Genetics, 2021).

T1: MMAB (recombinant human MMAB, amino acids 56–250) (Homo sapiens, UniProt Q96EY8)
T1 construct: N-terminally truncated residues 56-250, mitochondrial leader omitted; homotrimer, native mass 78 kDa by SEC
T1 sequence (Q96EY8 56-250): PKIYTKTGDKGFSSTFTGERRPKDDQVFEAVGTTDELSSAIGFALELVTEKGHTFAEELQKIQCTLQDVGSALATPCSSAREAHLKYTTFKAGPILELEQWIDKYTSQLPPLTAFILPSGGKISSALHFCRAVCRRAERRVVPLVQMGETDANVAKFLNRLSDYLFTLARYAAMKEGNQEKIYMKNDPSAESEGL

B1: human methylmalonyl-CoA mutase (MMUT) (enzyme, UniProt P22033 33-750, looked up)
chain: LHQQQPLHPEWAALAKKQLKGKNPEDLIWHTPEGISIKPLYSKRDTMDLPEELPGVKPFTRGPYPTMYTFRPWTIRQYAGFSTVEESNKFYKDNIKAGQQGLSVAFDLATHRGYDSDNPRVRGDVGMAGVAIDTVEDTKILFDGIPLEKMSVSMTMNGAVIPVLANFIVTGEEQGVPKEKLTGTIQNDILKEFMVRNTYIFPPEPSMKIIADIFEYTAKHMPKFNSISISGYHMQEAGADAILELAYTLADGLEYSRTGLQAGLTIDEFAPRLSFFWGIGMNFYMEIAKMRAGRRLWAHLIEKMFQPKNSKSLLLRAHCQTSGWSLTEQDPYNNIVRTAIEAMAAVFGGTQSLHTNSFDEALGLPTVKSARIARNTQIIIQEESGIPKVADPWGGSYMMECLTNDVYDAALKLINEIEEMGGMAKAVAEGIPKLRIEECAARRQARIDSGSEVIVGVNKYQLEKEDAVEVLAIDNTSVRNRQIEKLKKIKSSRDQALAERCLAALTECAASGDGNILALAVDASRARCTVGEITDALKKVFGEHKANDRMVSGAYRQEFGESKEITSAIKRVHKFMEREGRRPRLLVAKMGQDGHDRGAKVIATGFADLGFDVDIGPLFQTPREVAQQAVDADVHAVGISTLAAGHKTLVPELIKELNSLGRPDILVMCGGVIPPQDYEFLFEVGVSNVFGPGTRIPKAAVQVLDDIEKCLEKKQQSV
notes: methylmalonyl-CoA mutase (MMUT), human, recombinant; also called apo-MMUT; holo-MMUT; source: recombinant, produced as previously described (Plessl et al. 2017), purified
B2: human ATP:cob(I)alamin adenosyltransferase (MMAB), amino acids 56-250 (enzyme, UniProt Q96EY8 56-250, looked up)
chain: PKIYTKTGDKGFSSTFTGERRPKDDQVFEAVGTTDELSSAIGFALELVTEKGHTFAEELQKIQCTLQDVGSALATPCSSAREAHLKYTTFKAGPILELEQWIDKYTSQLPPLTAFILPSGGKISSALHFCRAVCRRAERRVVPLVQMGETDANVAKFLNRLSDYLFTLARYAAMKEGNQEKIYMKNDPSAESEGL
notes: ATP:cob(I)alamin adenosyltransferase (MMAB), human, N-terminally truncated, amino acids 56-250; same residues as in the human MMAB structure of Campanello et al. 2018; also called ATP:cobalamin adenosyltransferase; apo-MMAB; source: recombinant, produced as previously described (Plessl et al. 2017), purified

What was measured:
[1] = molecular target: T1, MMAB (recombinant human MMAB, amino acids 56–250); test: isothermal titration calorimetry; format: binding
[2] = molecular target: T1, MMAB (recombinant human MMAB, amino acids 56–250); test: fluorescence titration (MMAB into […] MANT-ATP, ex […] / em […] nm); format: binding
[3] = molecular target: the molecule itself; test: SEC; analytical gel filtration, Superose 6 Increase 10/300 GL, Buffer A (100 mM HEPES pH 7.5, 300 mM KCl, 250 µM MgCl2, 5% glycerol); 100 µl of protein at 25 µM; calibrated with 29, 150 and 443 kDa standards

Row | Molecule | stoichiometry N [3] | also measured
1 | Nc1ncnc2c1ncn2[C@@H]1O[C@H](COP(=O)(O)OP(=O)(O)OP(=O)(O)O)[C@@H](O)[C@H]1O [ATP] | – | Kd [1]: 14.2 ± 0.6 µM
2 | CNc1ccccc1C(=O)O[C@H]1[C@@H](O)[C@H](n2cnc3c(N)ncnc32)O[C@@H]1CO[P@@](=O)(O)O[P@](=O)(O)OP(=O)(O)O [MANT-ATP, 2',3'-O-(N-Methyl-anthraniloyl)-adenosine-5'-triphosphate] | – | Kd [2]: 21.1 ± 3.4 µM
3 | B1 | 2 | –
4 | B2 | 3 | –
